Source: ChEMBL document CHEMBL1127372, “The discovery and structure-activity relationships of 1,2,3,6-tetrahydro-4-phenyl-1-[(arylcyclohexenyl)alkyl]pyridines. Dopamine autoreceptor agonists and potential antipsychotic agents” (J Med Chem, 1994)
Activity calls are given as the source filed them. No cut-off for these calls is given here.

What was measured:
[1] = test system: Mus musculus; test: Tested for the inhibition of locomotor activity in mice intraperitoneally; value ranges from 0.14-0.9 mg/Kg; assay type: functional; details: ip
[2] = test system: Saimiri sciureus (squirrel monkey); test: Tested for inhibition of conditioned avoidance in squirrel monkeys; stim indicates stimulation (increase in response rate) at 0.156 and 0.312 mgkg sc
[3] = test system: Rattus norvegicus; test: Compound was tested for the decrease of DA neuron firing rate in rats at 0.25 mg/Kg ip dose; assay type: functional; parameters: scale not given: the % may be the effect or the level left
[4] = species on record: Rattus norvegicus; test: animal or person; details: ip
[5] = test system: Rattus norvegicus; test: Tested for reversal of DOPA accumulation in rat striatum after administration of compound at 10 mg/Kg dose for 60 min and GBL 750 mg/Kg ip; value ranges from 0.14-0.59; assay type: functional
[6] = test system: Mus musculus; test: Tested for the inhibition of locomotor activity in mice intraperitoneally; value ranges from 0.9-1.8 mg/Kg; assay type: functional; details: ip
[7] = target: T1, D(2) dopamine receptor (Rattus norvegicus, UniProt P61169); test: In vitro inhibition of [3H]spiperone binding to Dopamine D2 receptor in rat striatum.; assay type: tissue-based
T1 sequence (P61169 whole entry): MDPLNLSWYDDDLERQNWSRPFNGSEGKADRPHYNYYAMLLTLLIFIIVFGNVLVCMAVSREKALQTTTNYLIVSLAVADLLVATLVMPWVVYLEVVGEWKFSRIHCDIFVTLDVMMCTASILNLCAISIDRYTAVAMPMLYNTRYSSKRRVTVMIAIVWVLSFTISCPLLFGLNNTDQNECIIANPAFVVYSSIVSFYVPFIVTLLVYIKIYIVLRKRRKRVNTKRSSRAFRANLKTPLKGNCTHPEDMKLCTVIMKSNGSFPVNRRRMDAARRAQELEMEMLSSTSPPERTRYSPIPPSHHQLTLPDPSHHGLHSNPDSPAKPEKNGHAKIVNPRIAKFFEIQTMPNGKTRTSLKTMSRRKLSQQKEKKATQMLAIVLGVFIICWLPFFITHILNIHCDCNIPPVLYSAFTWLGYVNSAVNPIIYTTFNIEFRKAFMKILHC

[8] = test system: Rattus norvegicus; test: Tested for reversal of DOPA accumulation in rat striatum after administration of compound at 10 mg/Kg dose for 60 min and GBL 750 mg/Kg ip; value ranges from 2.05-4.46; assay type: functional
[9] = target: T1, D(2) dopamine receptor
Description: Tested for binding affinity towards rat striatal D2 receptor using [3H]spiperone as radioligand

[10] = target: D(3) dopamine receptor (Homo sapiens, UniProt P35462)
D(3) dopamine receptor, sequence (P35462 whole entry): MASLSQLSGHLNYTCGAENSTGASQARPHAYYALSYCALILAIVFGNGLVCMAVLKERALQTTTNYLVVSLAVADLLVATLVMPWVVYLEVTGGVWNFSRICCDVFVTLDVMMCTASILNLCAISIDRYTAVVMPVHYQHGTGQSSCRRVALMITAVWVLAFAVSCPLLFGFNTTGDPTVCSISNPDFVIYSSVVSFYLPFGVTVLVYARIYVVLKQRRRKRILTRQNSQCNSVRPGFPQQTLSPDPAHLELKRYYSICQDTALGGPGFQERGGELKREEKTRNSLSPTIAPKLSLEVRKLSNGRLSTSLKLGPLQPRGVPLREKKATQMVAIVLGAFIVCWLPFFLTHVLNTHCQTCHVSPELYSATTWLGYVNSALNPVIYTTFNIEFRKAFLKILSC
Description: Tested for binding affinity towards human D3 receptor using [3H]spiperone as radioligand

[11] = test system: Rattus norvegicus; test: Tested for reversal of DOPA accumulation in rat mesolimbic after administration of compound at 10 mg/Kg dose for 60 min and GBL 750 mg/Kg ip; value ranges from 0.19-0.47; assay type: functional
[12] = target: T2, D(4) dopamine receptor (Homo sapiens, UniProt P21917); test: Tested for binding affinity towards human Dopamine receptor D4.2 using [3H]spiperone as radioligand
T2 sequence (P21917 whole entry): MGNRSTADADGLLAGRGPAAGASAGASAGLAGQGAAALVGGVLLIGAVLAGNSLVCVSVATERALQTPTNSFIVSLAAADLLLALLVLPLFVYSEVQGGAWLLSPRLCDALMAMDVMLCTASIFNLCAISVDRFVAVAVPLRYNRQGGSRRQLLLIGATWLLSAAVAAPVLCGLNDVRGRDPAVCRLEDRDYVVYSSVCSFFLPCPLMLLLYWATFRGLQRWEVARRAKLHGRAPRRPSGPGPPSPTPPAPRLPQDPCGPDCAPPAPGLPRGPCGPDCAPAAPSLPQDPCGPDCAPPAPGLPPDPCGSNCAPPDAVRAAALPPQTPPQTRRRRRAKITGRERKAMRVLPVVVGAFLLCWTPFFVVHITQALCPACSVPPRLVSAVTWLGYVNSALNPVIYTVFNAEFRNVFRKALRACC

[13] = test system: Rattus norvegicus; test: Tested for inhibition of rat exploratory locomotory activity (LMA); value ranges from […]-[…] mg/Kg; assay type: functional
[14] = Tested for inhibition of conditioned avoidance in squirrel monkeys; value ranges from 0.4-0.7 mg/Kg; assay type: functional
[15] = test system: Rattus norvegicus; test: Tested for the inhibition of locomotor activity in rats intraperitoneally; value ranges from […]-[…] mg/Kg; assay type: functional; details: ip
[16] = test system: Rattus norvegicus; test: Effect on striatal DOPA synthesis at 10 mg/kg dose after GBL intraperitoneal dose of 750 mg/kg in rat corpus striatum; assay type: functional
[17] = test system: Rattus norvegicus; test: Compound was tested for the decrease of DA neuron firing rate in rats at 2.5 mg/Kg ip dose; assay type: functional
[18] = target: D(1A) dopamine receptor (Rattus norvegicus, UniProt P18901); test: Tested for binding affinity towards rat striatal dopamine receptor D1 using [3H]-SCH- 23390 as radioligand
D(1A) dopamine receptor, sequence (P18901 whole entry): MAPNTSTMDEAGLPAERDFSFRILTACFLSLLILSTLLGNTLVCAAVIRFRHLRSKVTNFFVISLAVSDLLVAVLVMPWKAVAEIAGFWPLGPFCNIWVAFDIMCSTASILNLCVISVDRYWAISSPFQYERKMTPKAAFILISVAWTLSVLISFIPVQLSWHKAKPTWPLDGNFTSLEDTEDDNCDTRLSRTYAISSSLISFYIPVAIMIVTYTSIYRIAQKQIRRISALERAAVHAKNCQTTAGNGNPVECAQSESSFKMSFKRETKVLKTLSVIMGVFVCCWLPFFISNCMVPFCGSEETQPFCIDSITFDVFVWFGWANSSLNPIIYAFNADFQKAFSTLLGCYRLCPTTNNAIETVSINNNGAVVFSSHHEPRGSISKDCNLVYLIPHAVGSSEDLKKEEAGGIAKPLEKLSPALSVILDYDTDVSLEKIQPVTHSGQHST

[19] = target: D(2) dopamine receptor (Homo sapiens, UniProt P14416)
D(2) dopamine receptor (Homo sapiens, UniProt P14416), sequence (P14416 whole entry): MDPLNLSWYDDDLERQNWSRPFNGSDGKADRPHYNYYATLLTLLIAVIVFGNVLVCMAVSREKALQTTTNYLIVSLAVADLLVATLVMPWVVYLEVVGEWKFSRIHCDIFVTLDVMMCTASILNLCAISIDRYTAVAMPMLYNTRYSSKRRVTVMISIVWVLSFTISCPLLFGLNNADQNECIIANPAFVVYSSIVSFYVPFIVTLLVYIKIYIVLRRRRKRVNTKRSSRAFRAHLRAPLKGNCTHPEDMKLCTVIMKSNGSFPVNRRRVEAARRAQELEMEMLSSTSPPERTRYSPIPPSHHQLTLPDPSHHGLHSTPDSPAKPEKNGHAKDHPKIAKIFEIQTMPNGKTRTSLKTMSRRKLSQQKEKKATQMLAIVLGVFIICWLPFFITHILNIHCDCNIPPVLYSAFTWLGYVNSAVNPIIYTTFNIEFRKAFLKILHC
Description: Tested for binding affinity towards human D2L receptor using [3H]spiperone as radioligand

[20] = target: T1, D(2) dopamine receptor; test: Tested for binding affinity towards rat striatal D2 receptor using [3H]NPA as radioligand
[21] = test system: Rattus norvegicus; test: Tested for inhibition of rat exploratory locomotory activity (LMA); value ranges from […]-[…] mg/Kg; value ranges from […]-[…] mg/Kg; assay type: functional
[22] = species on record: Rattus norvegicus; test: Tested for inhibition of rat exploratory locomotory activity (LMA); assay type: functional
[23] = test system: Rattus norvegicus; test: Tested for inhibition of rat exploratory locomotory activity (LMA); value ranges from 3.2-10.4 mg/Kg; assay type: functional
[24] = test system: Mus musculus; test: Tested for inhibition of mouse explanatory locomotory activity; value ranges from […]-[…] mg/Kg; assay type: functional
[25] = test system: Mus musculus; test: Tested for inhibition of mouse exploratory locomotory activity (LMA); value ranges from 0.8-1.6 mg/Kg; assay type: functional
[26] = species on record: Mus musculus; test: Tested for inhibition of mouse exploratory locomotory activity (LMA); assay type: functional
[27] = test system: Mus musculus; test: Tested for inhibition of mouse exploratory locomotory activity (LMA); value ranges from 9.2-16 mg/Kg; assay type: functional
[28] = test system: Mus musculus; test: Tested for inhibition of mouse exploratory locomotory activity (LMA); value ranges from […]-[…] mg/Kg; assay type: functional
[29] = Tested for inhibition of conditioned avoidance in squirrel monkeys; value ranges from 0.4-0.6 mg/Kg; details: Saimiri
[30] = species on record: Mus musculus; test: animal or person; details: ip
[31] = test system: Rattus norvegicus; test: Tested for the inhibition of locomotor activity in rats orally; value ranges from 0.21-0.3 mg/Kg; details: po
[32] = test system: Rattus norvegicus; test: Tested for inhibition of rat exploratory locomotory activity (LMA); value ranges from 12.5-24.7 mg/Kg; assay type: functional

CN1CCc2cccc3c2[C@H]1Cc1ccc(O)c(O)c1-3 [APOMORPHINE]
ED50 [1]: 0.36 mg/kg | ED50 [2]: inactive | Activity [3]: 100% | ED50 [4]: 0.03 mg/kg | ED50 [5]: 0.28 mg/kg

C1=C(c2ccccc2)CCN(C[C@@H]2CCC=C(c3ccccc3)C2)C1 [CI-1007]
ED50 [6]: 1.3 mg/kg | IC50 [7]: 53 nM | Effect [8]: 3% | Ki [9]: 53 nM | Ki [10]: 16.6 nM | Effect [11]: 0.3% | Ki [12]: 90.9 nM | ED50 [13]: 2.9 mg/kg | ED50 [14]: 0.6 mg/kg | ED50 [15]: 2.9 mg/kg | Effect [16]: -66% | Activity [17]: 99 | Ki [18]: > 10000 nM | Ki [19]: 25.5 nM | Ki [20]: 3.3 nM

C1=C(c2ccccc2)CCN(C[C@H]2CCC=C(c3ccccc3)C2)C1
ED50 [21]: 3.8 mg/kg | IC50 [7]: 113 nM | Effect [16]: 50%

Clc1ccc(C2=CCC[C@@H](CN3CC=C(c4ccccc4)CC3)C2)cc1
ED50 [22]: 19.9 mg/kg

Cc1ccc(C2=CCC[C@@H](CN3CC=C(c4ccccc4)CC3)C2)cc1
IC50 [7]: 328 nM | ED50 [23]: 5.8 mg/kg | Effect [16]: -42%

COc1ccc(C2=CCC[C@@H](CN3CC=C(c4ccccc4)CC3)C2)cc1
IC50 [7]: 100 nM | Effect [16]: -47% | ED50 [24]: 5.6 mg/kg

C1=C(c2ccccc2)CCN(CC2CCC=C(c3ccccc3)C2)C1 (configuration not stated)
IC50 [7]: 112 nM | ED50 [25]: 1.1 mg/kg | Effect [16]: -86%

C1=C(c2ccccc2)CCN(CC2CCCC=C2c2ccccc2)C1 (configuration not stated)
IC50 [7]: 3940 nM | ED50 [26]: > 30 mg/kg

C1=C(c2ccccc2)CCCC1CN1CC=C(c2ccccc2)CC1 (configuration not stated)
IC50 [7]: 420 nM | Effect [16]: -34%

C1=C(c2ccccc2)CCC(CN2CC=C(c3ccccc3)CC2)C1 (configuration not stated)
IC50 [7]: 1000 nM | ED50 [27]: 12.1 mg/kg | Effect [16]: -32%

C1=C(c2ccccc2)CC(CN2CC=C(c3cccs3)CC2)CC1 (configuration not stated)
IC50 [7]: 170 nM

C1=C(c2ccccc2)CC(CN2CCN(c3ncccn3)CC2)CC1 (configuration not stated)
IC50 [7]: 354 nM

C1=C(c2ccccc2)CCN(CCC2CCC=C(c3ccccc3)C2)C1 (configuration not stated)
Effect [16]: -49%

C1=C(c2ccccc2)CC(CN2CCN(c3ccccn3)CC2)CC1 (configuration not stated)
IC50 [7]: 141 nM | ED50 [28]: 0.8 mg/kg | Effect [16]: -61%

C1=C(c2ccccc2)CCN(C2CCC=C(c3ccccc3)C2)C1 (configuration not stated)
IC50 [7]: 9210 nM | ED50 [26]: ~30 mg/kg

C1=C(c2ccccc2)CC(CN2CCN(c3ccccc3)CC2)CC1 (configuration not stated)
IC50 [7]: 424 nM | Effect [16]: -7.5%

O=C(CCCN1CCC(O)(c2ccc(Cl)cc2)CC1)c1ccc(F)cc1 [HALOPERIDOL]
ED50 [29]: 0.5 mg/kg | ED50 [30]: 0.3 mg/kg | ED50 [31]: 0.25 mg/kg

Fc1ccc(C2=CCC[C@@H](CN3CC=C(c4ccccc4)CC3)C2)cc1
IC50 [7]: 76 nM | Effect [16]: -74% | ED50 [32]: 17.5 mg/kg

FC(F)(F)c1ccc(C2=CCC[C@@H](CN3CC=C(c4ccccc4)CC3)C2)cc1
IC50 [7]: 2550 nM
